From the supplement of paper PMC10307832

These cell lines were tested with CN(C)C(=N)NC(=N)N [Metformin] + COc1cccc2cc(-c3nc([C@H]4CC[C@H](C(=O)O)CC4)n4ncnc(N)c34)[nH]c12 [OSI-027] (partner 0.5 µM) (assay: relative viability (nuclei count vs DMSO), 5 days (fraction); higher = more cells survive). Conditions: first compound 10 µM.
How it was run: (§1)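 Relative viability divides the nuclei count in treated wells by that in vehicle wells. Lung cancer cell lines were seeded in 1536-well plates, dosed by pin tool the next day, and fixed and stained after 5 days in one step with final 0.05% Triton X-100, 1% formaldehyde and 1 ug/ml Hoechst. Dosing was a single drug or a fixed anchor-drug dose plus five library-drug doses (not always all listed) in √10 steps, and values are medians of duplicate plates imaged at 4×.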

Cell Line	relative viability
A-427	0.45
ABC-1	0.661
BEN	0.271
CAL-12T	0.678
COR-L23	0.644
COR-L 105	0.736
ChaGo-K-1	0.595
EKVX	0.623
EMC-BAC-2	0.419
EPLC-272H	0.294
H3255	0.477
HCC-44	1.14
HCC-78	0.466
HCC-366	0.757
HOP-62	0.827
LCLC-97TM1	0.647
LCLC-103H	0.51
LK-2	0.194
LOU-NH91	0.711
LU99A	0.302
LXF-289	0.764
NCI-H23	0.594
NCI-H322M	0.54
NCI-H358	0.737
NCI-H520	0.306
NCI-H596	1.04
NCI-H1563	0.742
NCI-H1623	0.449
NCI-H1648	0.24

Same assay, conditions: first compound 31.62 µM

Cell Line	relative viability
201T	0.955
A-427	0.493
ABC-1	0.529
BEN	0.275
CAL-12T	0.94
COR-L23	0.68
COR-L 105	0.895
ChaGo-K-1	0.599
EKVX	0.77
EMC-BAC-2	0.397
EPLC-272H	0.269
H3255	0.654
HARA	0.6
HCC-15	0.812
HCC-44	0.921
HCC-78	0.49
HCC-366	0.967
HCC-827	0.714

Cell Line	relative viability
HOP-62	0.903
LC-2-ad	0.69
LCLC-97TM1	0.58
LCLC-103H	0.624
LK-2	0.169
LOU-NH91	0.71
LU99A	0.321
LXF-289	0.737
NCI-H23	0.665
NCI-H322M	0.597
NCI-H358	0.879
NCI-H441	0.665
NCI-H520	0.35
NCI-H596	0.84
NCI-H1563	0.797
NCI-H1623	0.469
NCI-H1648	0.264

Same assay, conditions: first compound 100 µM

Cell Line	relative viability
201T	0.875
A-427	0.44
ABC-1	0.466
BEN	0.3
CAL-12T	0.581
COR-L23	0.571
COR-L 105	0.736
ChaGo-K-1	0.6
EKVX	0.645
EMC-BAC-2	0.365
EPLC-272H	0.262
H3255	0.623
HARA	0.529
HCC-15	0.655
HCC-44	0.696
HCC-78	0.362
HCC-366	0.991
HCC-827	0.704

Cell Line	relative viability
HOP-62	0.992
LC-2-ad	0.693
LCLC-97TM1	0.537
LCLC-103H	0.555
LK-2	0.199
LOU-NH91	0.644
LU99A	0.3
LXF-289	0.738
NCI-H23	0.559
NCI-H322M	0.604
NCI-H358	0.801
NCI-H441	0.519
NCI-H520	0.322
NCI-H596	0.85
NCI-H1563	0.778
NCI-H1623	0.463
NCI-H1648	0.264

Same assay, conditions: first compound 316.23 µM

Cell Line	relative viability
201T	0.881
A-427	0.458
ABC-1	0.266
BEN	0.314
CAL-12T	0.39
COR-L23	0.605
COR-L 105	0.773
ChaGo-K-1	0.543
EMC-BAC-2	0.399
EPLC-272H	0.293
H3255	0.457
HARA	0.47
HCC-15	0.586
HCC-44	0.632
HCC-78	0.426
HCC-366	0.808
HCC-827	0.586

Cell Line	relative viability
HOP-62	0.678
LC-2-ad	0.531
LCLC-97TM1	0.487
LCLC-103H	0.461
LK-2	0.195
LOU-NH91	0.775
LU99A	0.309
LXF-289	0.721
NCI-H23	0.523
NCI-H322M	0.457
NCI-H358	0.716
NCI-H441	0.393
NCI-H520	0.28
NCI-H596	0.636
NCI-H1563	0.722
NCI-H1623	0.539
NCI-H1648	0.285

Same assay, conditions: first compound 1000 µM

Cell Line	relative viability
201T	0.517
A-427	0.492
ABC-1	0.22
BEN	0.263
CAL-12T	0.605
COR-L23	0.782
COR-L 105	0.521
ChaGo-K-1	0.597
EKVX	0.681
EMC-BAC-2	0.356
EPLC-272H	0.335
H3255	0.611
HARA	0.515
HCC-15	0.678
HCC-44	0.491
HCC-78	0.422
HCC-366	1.28
HCC-827	0.73

Cell Line	relative viability
HOP-62	0.861
LC-2-ad	0.588
LCLC-97TM1	0.711
LCLC-103H	0.506
LK-2	0.209
LOU-NH91	0.767
LU99A	0.289
LXF-289	0.735
NCI-H23	0.664
NCI-H322M	0.46
NCI-H358	0.749
NCI-H441	0.46
NCI-H520	0.348
NCI-H596	0.988
NCI-H1563	0.866
NCI-H1623	0.478
NCI-H1648	0.279

What follows are cell lines tested with CN(C)C(=N)NC(=N)N [Metformin] + CC(=O)c1c(C)c2cnc(Nc3ccc(N4CCNCC4)cn3)nc2n(C2CCCC2)c1=O [Palbociclib] (partner 0.5 µM) in the same assay as above. Conditions: first compound 10 µM.
How it was run: as §1

Cell Line	relative viability
A-427	0.501
BEN	0.503
CAL-12T	0.579
COR-L23	0.237
COR-L 105	0.419
ChaGo-K-1	0.92
EMC-BAC-2	0.499
EPLC-272H	0.294
H3255	0.309
HARA	0.323
HCC-15	0.726
HCC-78	0.479
HCC-366	0.342
HCC-827	0.452
HOP-62	0.372
LCLC-103H	0.465
LK-2	0.86
LOU-NH91	0.524
LU99A	0.387
LXF-289	0.516
NCI-H23	0.583
NCI-H322M	0.54
NCI-H358	0.114
NCI-H520	0.271

Same assay, conditions: first compound 31.62 µM

Cell Line	relative viability
201T	0.376
A-427	0.546
ABC-1	0.9
BEN	0.529
CAL-12T	0.53
COR-L23	0.289
COR-L 105	0.44
ChaGo-K-1	0.897
EKVX	0.312
EMC-BAC-2	0.547
EPLC-272H	0.32
H3255	0.35
HARA	0.297
HCC-15	0.807
HCC-44	0.917
HCC-78	0.507

Cell Line	relative viability
HCC-366	0.376
HCC-827	0.501
HOP-62	0.405
LC-2-ad	0.341
LCLC-97TM1	0.239
LCLC-103H	0.561
LK-2	0.837
LOU-NH91	0.523
LU99A	0.352
LXF-289	0.557
NCI-H23	0.563
NCI-H322M	0.495
NCI-H358	0.125
NCI-H441	0.211
NCI-H520	0.269
NCI-H1648	0.299

Same assay, conditions: first compound 100 µM

Cell Line	relative viability
201T	0.397
A-427	0.516
ABC-1	0.62
BEN	0.523
CAL-12T	0.488
COR-L23	0.218
COR-L 105	0.464
ChaGo-K-1	0.957
EKVX	0.355
EMC-BAC-2	0.502
EPLC-272H	0.339
H3255	0.307
HARA	0.442
HCC-15	0.716
HCC-44	0.959
HCC-78	0.452

Cell Line	relative viability
HCC-366	0.309
HCC-827	0.481
HOP-62	0.358
LC-2-ad	0.313
LCLC-97TM1	0.321
LCLC-103H	0.532
LK-2	0.706
LOU-NH91	0.441
LU99A	0.347
LXF-289	0.568
NCI-H23	0.495
NCI-H322M	0.512
NCI-H358	0.122
NCI-H441	0.165
NCI-H520	0.277
NCI-H1648	0.296

Same assay, conditions: first compound 316.23 µM

Cell Line	relative viability
201T	0.329
A-427	0.53
ABC-1	0.592
BEN	0.436
CAL-12T	0.384
COR-L23	0.208
COR-L 105	0.433
ChaGo-K-1	0.716
EKVX	0.384
EMC-BAC-2	0.496
EPLC-272H	0.311
H3255	0.309
HARA	0.279
HCC-15	0.562
HCC-44	0.93
HCC-78	0.505

Cell Line	relative viability
HCC-366	0.31
HCC-827	0.469
HOP-62	0.387
LC-2-ad	0.27
LCLC-97TM1	0.209
LCLC-103H	0.437
LK-2	0.718
LOU-NH91	0.518
LU99A	0.35
LXF-289	0.535
NCI-H23	0.508
NCI-H322M	0.551
NCI-H358	0.138
NCI-H441	0.215
NCI-H520	0.22
NCI-H1648	0.294

Same assay, conditions: first compound 1000 µM

Cell Line	relative viability
201T	0.382
A-427	0.389
ABC-1	0.279
BEN	0.456
CAL-12T	0.423
COR-L23	0.249
COR-L 105	0.441
ChaGo-K-1	0.967
EKVX	0.357
EMC-BAC-2	0.423
EPLC-272H	0.391
H3255	0.321
HARA	0.394
HCC-15	0.831
HCC-44	0.887
HCC-78	0.483

Cell Line	relative viability
HCC-366	0.334
HCC-827	0.615
HOP-62	0.374
LC-2-ad	0.347
LCLC-97TM1	0.21
LCLC-103H	0.495
LK-2	0.877
LOU-NH91	0.517
LU99A	0.31
LXF-289	0.564
NCI-H23	0.553
NCI-H322M	0.488
NCI-H358	0.141
NCI-H441	0.238
NCI-H520	0.269
NCI-H1648	0.294

These cell lines were tested with N#CC1(c2ccc(NC(=O)c3cccnc3NCc3ccncc3)cc2)CCCC1 [Apatinib] + N=C(N)NC(=N)NCCc1ccccc1 [Phenformin] (partner 250 µM) in the same assay as above. Conditions: first compound 0.08 µM.
How it was run: as §1

Cell Line	relative viability
201T	0.481
A549	0.181
A-427	0.393
BEN	0.26
CAL-12T	0.636
COR-L23	0.5
COR-L 105	0.523
ChaGo-K-1	0.473
EKVX	0.233
EMC-BAC-2	0.578
